According to patent US20170333390A1, “PHYTOCHEMICAL COMPOSITIONS INCLUDING SESAMIN FOR ANTI-INFLAMMATORY, ANTI-CYTOKINE STORM, AND OTHER USES” (CHIANG MAI UNIVERSITY, priority 2009, published 2017):

System: IL-2 gene expression in LPS induced peripheral blood mononuclear cells (PBMCs)
Assay: IL-2 gene expression relative to GAPDH in LPS induced PBMCs (RT-PCR)
Type: cell-based
Details: 1.0 ug/ml sesamin (culture 4), LPS 20 ng/ml, 24 hours
Description: Experiments were conducted to evaluate the effect of particular phytochemical compositions provided by the present disclosure on IL-2 gene expression in specified cells found within a body of a living organism. Cells used for the experiment described in this example are LPS induced peripheral blood mononuclear cells (PBMCs). It is understood by a person having ordinary skill in the art that the PBMCs may be substituted for other immune cells found within the body. It is also understood by a person having ordinary skill in the art that other inducing substances or chemicals besides LPS, for example viral antigens, may also be used for inducing the PBMCs.
Preparation of PBMCs is done by standard isolation techniques or methods known to a person of ordinary skill in the art as with the experiments of example two. In addition, LPS can be obtained from a commercial source, for example Sigma-Aldrich Co. The PBMCs are cultured in 10% fetal calf serum in RPMI1640 medium. Five cultures of PBMCs, i.e. culture 1 to culture 5, were prepared. […]
The amount or level of IL-2 gene expression in the PBMCs was measured or determined using methods or techniques known to a person having ordinary skill in the relevant art. In example three, Real-Time PCR (RT-PCR) was used for quantifying the amount of IL-2 gene expression in the PBMCs.

## c1cc2c(cc1[C@H]1OC[C@H]3[C@@H]1CO[C@@H]3c1ccc3c(c1)OCO3)OCO2 [sesamin]
  increase in IL-2 gene expression relative GAPDH: approximately 220%
